Assays:
[1] = test system: ear weight gain produced by multiple doses of TPA in mice; experiment: Chronic (multiple dose) TPA mouse ear inflammation assay, ear weight gain; assay type: in vivo, mouse (female CD-1); settings: for Decrease in weight relative to TPA treated biopsies: 20 μg HCV/ear; for % Inhibition of Ear Weight Gain, Relative to Hydrocortisone (HCV) = 100%: head prints 1.25 eg/ear
Procedure: The acute skin inflammation model described in Example 1, tests the ability of a compound to prevent inflammation and thus must be applied prophylactically. Most clinical situations, however, are present as chronic inflammatory conditions. […] The effects of the compounds of the present invention and Salifluor on chronically inflamed skin was measured in the mouse ear model that utilizes multiple TPA doses over a 10-day period to produce the inflammatory response.
The assay used female CD-1 mice (7-9 weeks of age). Following a 2-week quarantine, mice were randomly assigned to test groups (5 mice/groups). TPA (10 uL of 0.01 TPA in acetone) was administered to both the inner and outer surface of each ear (2μg/ear) on day 0,2,4,7, and 9 on protocol. On Day 7,8 and 9, two applications of test article were applied to each ear 2 and 4 hours after dosing with TPA. The test articles were administered in 10 uL aliquots to both the inner and outer surface of each ear (20 μl total/dose). […] Hydrocortisone-17-valerate (HCV, 20μg/ear) was employed as a positive control. Mice were sacrificed at Day 10 on protocol and uniform punch biopsies (approximately 8 mm dia.) were taken from each ear. While on protocol, dermal irritation was scored semiquantitatively at Day 1,3,5,8, and 10.
(§1) Inhibition of TPA stimulated increased ear weight was used as an initial measure of efficacy for all of the agents tested. One biopsy from each mouse was also quick frozen and stored at -70° C. for later assay of myleoperoxidase, an enzyme associated with infiltrating PMN, or other measure of efficacy. The remaining biopsy from each mouse treated with Trifluorosal or HCV was fixed in formalin and processed for histopathologic evaluation, including measurement of cellular infiltration (PMNs, endothelial cells, macrophages) and epidermal thickness at 20 random sites along the length of the specimen.
Initially, a dose-response curve for multiple doses of TPA to produce mouse ear weight gain was generated in order to determine the concentration of TPA to be employed in the inhibition studies. […] Another major difference between the multiple TPA dose (or chronic assay for inflammation) and the single TPA dose (or acute assay for inflammation) in the mouse ear is sensitivity to Non-steroidal antiinflammatory drugs (NSAIDs) and antihistamines.

[2] = test system: TPA induced mouse ear edema; experiment: Acute TPA mouse ear inflammation assay, edema (ear weight); assay type: in vivo
Excerpt: The anti-inflammatory effect of selected compounds of this invention were compared to those of Triclosan™ and hydrocortisone in a modified […] (TPA) mouse ear inflammation assay. TPA was used as an inflammogen rather than croton oil because TPA gives a well characterized inflammatory response at very low concentrations. […] This model can therefore be used to study the pharmacokinetics, clinical efficacy and adverse side effects of anti-inflammatory agents. To quantitate inflammation, ear punches from treated animals were used to measure increased ear mass (edema) and myeloperoxidase (MPO) activity. For the inhibition studies, ear biopsies were weighed six hours after treatment with TPA and the simultaneous application of the compound of the present invention. All the compounds were diluted in acetone. Following this, the biopsies were frozen and subsequently used to measure inhibition of MPO activity, an estimate of polymorphonuclear (PMN) […] activity in the affected area. Percent inhibition of edema was calculated as [c-t]/c x 100, where c and t are increases in ear weight in control and treated mice, respectively.
Initially a dose-response curve for TPA-induced mouse ear edema was generated in order to determine the concentration of TPA to be employed in the inhibition studies. TPA produced a theoretical dose-response curve for edema with an ED50 of 80 ng/ear and an ED90 of 200 ng/ear in two separate experiments. ED50 is the dose at which 50% of the maximum effect was observed while ED90 is the dose at which 90% of the maximum effect was observed. […] The ED50 values for the compounds tested are as follows: […]

[3] = test system: TPA treated mouse ear skin; experiment: Histopathology of ear biopsies after multiple doses of TPA (epidermal thickness, dermal cellularity); assay type: in vivo, mouse (female CD-1)
Procedure: The assay used female CD-1 mice (7-9 weeks of age). Following a 2-week quarantine, mice were randomly assigned to test groups (5 mice/groups). TPA (10 uL of 0.01 TPA in acetone) was administered to both the inner and outer surface of each ear (2μg/ear) on day 0,2,4,7, and 9 on protocol. On Day 7,8 and 9, two applications of test article were applied to each ear 2 and 4 hours after dosing with TPA. The test articles were administered in 10 uL aliquots to both the inner and outer surface of each ear (20 μl total/dose). The candidate drugs were tested at several different concentrations (e.g., 5, 1.25, and 0.125 mg/ear) to determine a maximum effective dose within a range that could be effectively applied. Hydrocortisone-17-valerate (HCV, 20μg/ear) was employed as a positive control. Mice were sacrificed at Day 10 on protocol and uniform punch biopsies (approximately 8 mm dia.) were taken from each ear. While on protocol, dermal irritation was scored semiquantitatively at Day 1,3,5,8, and 10.
as §1
In order to confirm the subjective observations, quantitative determinations of 3 parameters (epidermal thickness, dermal thickness, and dermal cellularity) in the skin of negative controls (acetone), positive controls (TPA), and TPA treated skin treated with 3 doses of test article (Trifluorosal) and hydrocortisone were carried out. Epidermal thickness reflects the reactive proliferative activity induced by TPA in the […]: dermal thickness reflects primarily Ad edema but may also be affected by other phenomena, such as formation of granulation tissue, collagen synthesis, the activity of myofibroblasts, etc. Cellularity of the dermis is frequently used as a surrogate marker of inflammatory changes in the dermis.
Determination of the epidermal thickness was performed under the microscope with a calibrated scale placed in the eyepiece. Ten determinations were carried out in the epidermis covering the outside of the ear using a 40× objective and a 10× eyepiece (400× total). The measurements were taken from the basal side of the basal layer (basement membrane) to the outer side of the last nucleated cell of the […]. The average of the 10 measurements expressed in microns was entered in the table.
Determination of dermal thickness was performed using a similar technique. To avoid variability caused by the difference in sizes between the base and tip of the ear, only 3 measurements were performed in the center of the sample. The measurements were performed from the basement membrane of the external and internal epithelial and therefore include, in addition to both dermis (external and internal), the cartilage.
Cellularity of the dermis was calculated by projecting a calibrated grid into the dermis and counting cells in the known area of the dermis. Areas of hair follicles or sebaceous glands were avoided. Five fields were counted and the results were adjusted to the number of cells in 1,000 square microns.
The results of individual animals were entered in the table and the averages and standard deviation were calculated using an EXCEL database. In addition, the results were also expressed as a percentage of the control (acetone treated). Furthermore, the percentage of inhibition of the test articles were calculated using the following formula: [formula]

[4] = test system: TPA induced mouse ear edema; settings: cited from earlier work
[5] = Solubility of representative compounds in various solvent systems; assay type: physicochemical
Procedure: The solubility of representative compounds of this invention in various solvent systems was determined. The solvents included ethanol, propylene glycol, SLS, Tween 80™ and combinations thereof.

[6] = Single dose oral tolerance in rats; assay type: in vivo, rat (male weaning Sprague-Dawley); settings: single dose 2.5 or 0.75 g/kg in 5% CMC, 7 days
Procedure: To test for tolerance of the administered compounds, male weaning Sprague-Dawley rats were fed in a single dose of 2.5 or 0.75 g/kg of TMF-12, TMF-10, TMC-10 or TPC-10 in 5% carboxymethyl cellulose (CMC) or CMC alone. […] At completion of the 7 day observation period, necropsies were performed on all animals.

[7] = in vivo; cited from earlier work
[8] = test system: ear weight gain produced by multiple doses of TPA in mice; settings: cited from earlier work
[9] = aqueous buffer, pH 10 K-buffer @ 35° C.
[10] = aqueous buffer, pH 10 Na-buffer @ 22° C.
[11] = organic solvent or mixture, Ethanol @ 19° C.
[12] = organic solvent or mixture, Propylene Glycol @ 20° C.
[13] = ph 10 na-buffer +0.5% sls, pH 10 Na-buffer @ 22° C. +0.5% SLS
[14] = inflammogen dose-response, two separate experiments, 6 hours

## CCCCC(=O)O[C@]1(C(=O)CO)CC[C@H]2[C@@H]3CCC4=CC(=O)CC[C@]4(C)[C@H]3[C@@H](O)C[C@@]21C [Hydrocortisone 17-valerate, Hydrocortisone-17-valerate, reference compound]
[1]; Assay #1
  Decrease in weight relative to TPA treated biopsies: 71%
[1]; Assay #2
  Decrease in weight relative to TPA treated biopsies: 107%
[1]; 20μg/ear, first experiment
  Inhibition of ear weight gain: 86%

## C[C@]12CCC(=O)C=C1CC[C@@H]1[C@@H]2[C@@H](O)C[C@@]2(C)[C@H]1CC[C@]2(O)C(=O)CO [Hydrocortisone, reference compound]
[2]; acute assay
  Relative anti-inflammatory potency (in words): the most potent anti-inflammatory agent tested
[3]; 0.02 mg/ear
  % Inhibition, Dermal Cellularity: 78.6%
  % Inhibition, Epidermal Thickness: 58.6%
[3]; histopathology
  Blood vessel prominence (in words): Blood vessels were not as prominent
[3]; histopathology, FIG. 1
  Cellularity of the dermis (in words): reduced the epidermal thickness as well as the cellularity of the dermis
  Epidermal thickness (in words): reduced the epidermal thickness

## CC(C)Cc1ccc(C(C)C(=O)O)cc1 (stereo not shown) [Ibuprofen]
[4]
  Inhibition of acute TPA assay by NSAIDs: inhibited

## COc1ccc2cc([C@H](C)C(=O)O)ccc2c1 [Naproxen]
[4]
  Inhibition of acute TPA assay by NSAIDs: inhibited

## CCCCCCCCCCS(=O)(=O)c1ccc(O)c(C(=O)Nc2cccc(C#N)c2)c1 [TMC-10]
[5]; +0.5% tween 80
  solubility: 770 µg/mL
[5]; +1% sls
  solubility: 4270 µg/mL
[5]; +1.5% tween 80
  solubility: 2240 µg/mL
[5]; +2% SLS + 0.5% Tween 80
  solubility: 3980 µg/mL
[5]; +2% SLS + 1.0% Tween 80
  solubility: 4740 µg/mL
[5]; +2% SLS + 2.0% Tween 80
  solubility: 5050 µg/mL
[5]; +2% sls
  solubility: 6680 µg/mL
[5]; +3.0% tween 80
  solubility: 4690 µg/mL
[5]; +4% sls
  solubility: 7900 µg/mL
[5]; [9]
  solubility: 5.58 µg/mL
[5]; [10]
  solubility: 7.2 µg/mL
[5]; [11]
  solubility: 36700 µg/mL
[5]; [12]
  solubility: 1940 µg/mL
[5]; [13]
  solubility: 3130 µg/mL
[1]; multiple doses of TPA
  % Inhibition of Ear Weight Gain, Actual: 0%
  % Inhibition of Ear Weight Gain, Relative to Hydrocortisone (HCV) = 100%: 0%
[6]
  Illness or deaths: No illness or deaths occurred

## CCCCCCCCS(=O)(=O)c1ccc(O)c(C(=O)Nc2cccc(C(F)(F)F)c2)c1 [TMF-8]
[1]; multiple doses of TPA
  % Inhibition of Ear Weight Gain, Actual: 0%
  % Inhibition of Ear Weight Gain, Relative to Hydrocortisone (HCV) = 100%: 0%

## CCCCCCCCCCCCCC(=O)O[C@@H]1[C@@H](C)[C@@]2(O)[C@@H](C=C(CO)C[C@]3(O)C(=O)C(C)=C[C@@H]23)[C@@H]2C(C)(C)[C@]12OC(C)=O [TPA, 12-tetradecanoyl 13-phorbol acetate, reference compound]
[2]; [14]
  ED50 for TPA-induced ear edema: 80 ng/ear
  ED90 for TPA-induced ear edema: 200 ng/ear
[1]; multiple doses of TPA
  Dose of TPA producing maximal ear weight gain: 2 μg/ear
  Dose of TPA with marginal effects on ear weight gain: below 1 μg/ear
[3]; multiple doses of TPA
  Histopathological change produced by multiple doses of TPA: dramatic hyperplasia of the epidermis as well as inflammatory changes in the dermis

## CCCCCCCCCCS(=O)(=O)c1ccc(O)c(C(=O)Nc2ccc(C#N)cc2)c1 [TPC-10]
[5]; +1% sls
  solubility: 690 µg/mL
[5]; +2% sls
  solubility: 910 µg/mL
[5]; +4% sls
  solubility: 1810 µg/mL
[5]; [9]
  solubility: 3.45 µg/mL
[5]; [10]
  solubility: 9.16 µg/mL
[5]; [11]
  solubility: 11500 µg/mL
[5]; [12]
  solubility: 810 µg/mL
[5]; [13]
  solubility: 300 µg/mL
[1]; multiple doses of TPA
  % Inhibition of Ear Weight Gain, Actual: 0%
  % Inhibition of Ear Weight Gain, Relative to Hydrocortisone (HCV) = 100%: 0%
[6]
  Illness or deaths: No illness or deaths occurred

## Oc1cc(Cl)ccc1Oc1ccc(Cl)cc1Cl [Triclosan, 2',4,4'-trichloro-2-hydroxy-diphenyl-ether]
[7]
  Anti-inflammatory activity in clinical trials: have been reported to have anti-inflammatory activity in clinical trials

## O=C(O)Cc1ccccc1Nc1c(Cl)cccc1Cl [diclofenac]
[8]
  Sensitivity of chronic TPA assay to NSAIDs: insensitive

## CN1C(C(=O)Nc2ccccn2)=C(O)c2ccccc2S1(=O)=O [piroxicam]
[8]
  Sensitivity of chronic TPA assay to NSAIDs: insensitive

— patent US6117859A, “Method of relieving chronic inflammation by using 5-alkylsulfonylsalicylanilides” (The Research Foundation of State University of New York, priority 1999, dated 2000)
